Consider seven compounds from patent US20240082228A1, “SARS-COV-2 THERAPEUTICS” (priority 2021, published 2024).

Data set [1] relates to SARS-CoV-2. The data set is classed as cell-based. To be noted: HEK293T cells stably expressing ACE2.
A further data set concerns HEK293T-ACE2 cells. To be noted: up to 10 mM compound.
A further data set has as its system GABAA receptors. Conditions: cited from earlier work; call rule not given here.
Data set [2] concerns the target benzodiazepine binding site of human GABAA receptors containing either an α1, α2, α3 or α5 subunit. Conditions: read-out: affinity; cited from earlier work.
The conditions of data set [3]: for Average Cell Number (1 uM) / Cell Number (1 uM) / Normalized Cell Number (1 uM): compound at 1 uM; for Average Cell Number (1 uM) / Average Cell Number (5 uM): average of normalized cell number, n=3, relative to DMSO; for Cell Number (1 uM) / Normalized Cell Number (1 uM) / Cell Number (5 uM) / Normalized Cell Number (5 uM): single replicate; for Cell Number (1 uM) / Cell Number (5 uM): raw cell count; for Normalized Cell Number (1 uM) / Normalized Cell Number (5 uM): relative to negative control DMSO; for Average Cell Number (5 uM) / Cell Number (5 uM) / Normalized Cell Number (5 uM): compound at 5 uM.

In data set [4] the test system is SARS-CoV-2. The data set is described as follows: microbe, parasite or virus in culture. The data set is classed as cell-based. To be noted: for HIT: overall, 1 or 5 uM; for % Infection (1 uM) / % Infection (5 uM): single replicate of triplicate; for Normalized Infection (1 uM) / log2FC Infection (1 uM) / Normalized Infection (5 uM) / log2FC Infection (5 uM): single replicate, relative to negative control DMSO.

Setting [5] is: 1 uM, average log2FC infection (n=3) relative to DMSO.
[6] abbreviates: 5 uM, average log2FC infection (n=3) relative to DMSO.

“And” between values parts separate entries of the source, which are not always exact repeats. Identical values can stand only once. Like-named read-outs stand apart in the source and are kept apart here.

On to `CN[C@@H](C)C(=O)N[C@H](C(=O)N1CCC[C@H]1C(=O)N[C@H]1c2ccccc2C[C@H]1OCC#CC#CCO[C@@H]1Cc2ccccc2[C@@H]1NC(=O)[C@@H]1CCCN1C(=O)[C@@H](NC(=O)[C@H](C)NC)C1CCCCC1)C1CCCCC1` [AZD5582], for which the antiviral activity result with SARS-CoV-2 [1] is listed as “excellent activity”. Also, the cytotoxicity result in the data set on HEK293T-ACE2 cells is recorded as “no observable cytotoxicity”.
With `CN[C@@H](C)C(=O)N[C@H]1CCS[C@H]2CC(C)(C)[C@@H](C(=O)N[C@H]3c4ccccc4C[C@H]3OCC#CC#CCO[C@@H]3Cc4ccccc4[C@@H]3NC(=O)[C@H]3N4C(=O)[C@@H](NC(=O)[C@H](C)NC)CCS[C@H]4CC3(C)C)N2C1=O` [Ciapavir], the antiviral activity result in the data set on SARS-CoV-2 [1] is “excellent activity”. Also, the cytotoxicity result in the data set with HEK293T-ACE2 cells was “no observable cytotoxicity”.
On to `CC(C)CCC(=O)CC1c2ccccc2C(=O)N1c1ccc2ccc(Cl)nc2n1` (centres unmarked) [Pagoclone], for which the “efficacy at α1-, α2- and α5-containing GABAA receptors” value in the data set on GABAA receptors (α1-, α2- and α5-containing) is reported as “partial agonist”. In addition, the “efficacy at receptors containing an α3 subunit” value in the data set with GABAA receptors (α3 subunit) was “full agonist”. Further, the Ki in data set [2] was 0.7 to 9.1 nM.
In the case of `FC(F)(F)c1cccc(C2=CCN(CCc3ccc4ccccc4c3)CC2)c1` [Xaliproden, xaliproden], in data set [3], the “Toxic (1 uM)” value is on record as 0 (non-toxic (Normalized Cell number>0.65); the “Toxic (5 uM)” value was 0 (non-toxic (Normalized Cell number>0.65); the “Average Cell Number (1 uM)” value is 0.7188; the “Cell Number (1 uM)” value is 4440 and 4549 and 3647. For the same compound, in data set [3], the “Normalized Cell Number (1 uM)” value was 0.7577 and 0.7763 and 0.6224; the “Average Cell Number (5 uM)” value is given as 0.9135; the “Cell Number (5 uM)” value is 5577 and 5737 and 4927; the “Normalized Cell Number (5 uM)” value was 0.9411 and 0.9681 and 0.8314. For the same compound, the “HIT (2 Std, 1 uM)” value in the data set with SARS-CoV-2 [4] (1 uM) is “HIT”. The “Average Infection (1 uM)” value in the data set with SARS-CoV-2 [4] (setting [5]) is listed as −0.6769. For the same compound, the “Average Infection (5 uM)” value with SARS-CoV-2 [4] (setting [6]) is −0.143. In addition, the HIT entry in the data set with SARS-CoV-2 [4] is listed as “Yes”.
As for cefonicid, in data set [3], the “Toxic (1 uM)” value is on record as 0 (non-toxic (Normalized Cell number>0.65); the “Toxic (5 uM)” value is listed as 0 (non-toxic (Normalized Cell number>0.65); the “Average Cell Number (1 uM)” value was 0.9122; the “Cell Number (1 uM)” value was 5339 and 5337 and 5361. For the same compound, in data set [3], the “Normalized Cell Number (1 uM)” value was 0.9111 and 0.9108 and 0.9148; the “Average Cell Number (5 uM)” value stood at 0.9876; the “Cell Number (5 uM)” value was 5781 (2×) and 5996; the “Normalized Cell Number (5 uM)” value is 0.9755 (2×) and 1.012. In addition, in the data set with SARS-CoV-2 [4], the “Average Infection (1 uM)” value was −0.4929, the “Average Infection (5 uM)” value is given as 0.04523 and the HIT entry was “Yes”. In the data set with SARS-CoV-2 [4] (1 uM), the “HIT (2 Std, 1 uM)” value is reported as “HIT”; the “% Infection (1 uM)” value is 19.07% and 19.19% and 17.78%; the “Normalized Infection (1 uM)” value was 0.7259 and 0.7305 and 0.6768; the “log2FC Infection (1 uM)” value was −0.4622 and −0.4531 and −0.5633. Also, in the data set on SARS-CoV-2 [4] (5 uM), the “% Infection (5 uM)” value was 16.97% and 13.67% and 17.29%; the “Normalized Infection (5 uM)” value is 1.102 and 0.8875 and 1.123; the “log2FC Infection (5 uM)” value is 0.1402 and −0.1722 and 0.1676.
For the compound lonafarnib, in data set [3], the “Toxic (1 uM)” value is given as 0 (non-toxic (Normalized Cell number>0.65); the “Average Cell Number (1 uM)” value worked out at 0.6561; the “Cell Number (1 uM)” value is 3801 and 4072 and 3662; the “Normalized Cell Number (1 uM)” value is 0.6486 and 0.6949 and 0.6249. In data set [3], the “Average Cell Number (5 uM)” value stood at 0.6416; the “Cell Number (5 uM)” value is 3696 and 3879 and 3831; the “Normalized Cell Number (5 uM)” value was 0.6546 and 0.6465. In the data set on SARS-CoV-2 [4], the “Average Infection (1 uM)” value is on record as −0.6667, the “Average Infection (5 uM)” value was −1.3 and the HIT result was “Yes”. Further, in the data set with SARS-CoV-2 [4] (1 uM), the “HIT (2 Std, 1 uM)” value is recorded as “HIT”; the “% Infection (1 uM)” value is 17.44% and 15.37%; the “Normalized Infection (1 uM)” value was 0.6641 and 0.5853; the “log2FC Infection (1 uM)” value was −0.5906 and −0.7727. For the same compound, in the data set on SARS-CoV-2 [4] (5 uM), the “HIT (2 Stdv, 5 uM)” value was “HIT”; the “% Infection (5 uM)” value was 6.304% and 5.672% and 6.839%; the “Normalized Infection (5 uM)” value was 0.4094 and 0.3683 and 0.4442; the “log2FC Infection (5 uM)” value is −1.288 and −1.441 and −1.171.
Regarding osanetant, in data set [3], the “Toxic (1 uM)” value is reported as 0 (non-toxic (Normalized Cell number>0.65); the “Toxic (5 uM)” value is 0 (non-toxic (Normalized Cell number>0.65); the “Average Cell Number (1 uM)” value was found to be 0.6882; the “Cell Number (1 uM)” value was 4045 and 3932 and 4122. In data set [3], the “Normalized Cell Number (1 uM)” value is 0.6903 and 0.671 and 0.7034; the “Average Cell Number (5 uM)” value is listed as 0.7783; the “Cell Number (5 uM)” value is 4466 and 4973 and 4398; the “Normalized Cell Number (5 uM)” value was 0.7536 and 0.8392 and 0.7421. For the same compound, in the data set with SARS-CoV-2 [4] (1 uM), the “HIT (2 Std, 1 uM)” value is “HIT”; the “% Infection (1 uM)” value was 13.75% and 14.37% and 16.0359%; the “Normalized Infection (1 uM)” value is 0.5233 and 0.547 and 0.6105; the “log2FC Infection (1 uM)” value is −0.9343 and −0.8703 and −0.7119. The “Average Infection (1 uM)” value in the data set with SARS-CoV-2 [4] (setting [5]) is −0.8388. In addition, in the data set on SARS-CoV-2 [4] (5 uM), the “HIT (2 Stdv, 5 uM)” value is “HIT”; the “% Infection (5 uM)” value was 0.9628% and 1.307% and 0.7276%; the “Normalized Infection (5 uM)” value is 0.06253 and 0.08489 and 0.04725; the “log2FC Infection (5 uM)” value was −3.999 and −3.558 and −4.403. Moreover, the “Average Infection (5 uM)” value in the data set with SARS-CoV-2 [4] (setting [6]) is on record as −3.987. Further, the HIT result with SARS-CoV-2 [4] is reported as “Yes”.
